What was measured:
Type in all cases: physicochemical
[1] = Lyophilized preparations with Polysorbate 20 alone: re-solubility immediately after lyophilization; conditions: KRN7000 200 µg/ml, no excipient, reconstituted in 1 ml distilled water for injection
Protocol: (§1) Next, 20 mg of the active component (KRN7000) was weighed and stirred in 100 ml of the Polysorbate solutions having a variety of concentrations in a heated bath to 80°C for 20 minutes in order to form a solution. After cooling with running water, the mixture was filtered through a 0.22 µm filter, and transparent colorless glass vials having a volume of 5 ml were charged with a 1 ml portion of each of a variety of solutions and subjected to lyophilizaiton. Lyophilization was carried out under the condition of preliminary freezing at -40°C for 2 hours and drying at -20°C for 24 hours, 10°C for 12 hours, and finally at 25°C for 5 hours to give the lyophilized product. The degree of vacuum was set at 0.1 Torr or less during drying step.
After the lyophilization step, the lyophilized composition was reconstituted in 1 ml of distilled water for injection, left standing for 30 minutes, and solubility was judged when the foams generated on reconstituiton disappeared.
(§2) The solubility was judged by cleaning the outside of the vial and placing it beneath the white light source in a darkroom for observation with naked eye at the position of a luminous intensity of about 5,000 lux. When the sample was clear with no precipitates, it was judged that the active component was dissolved.

[2] = Addition effects of sodium deoxycholate and histidine in the absence of a sugar; conditions: lyophilized, KRN7000 200 µg/ml, Polysorbate 20 0.5%, 1%, no sugar, 50°C
Protocol: Addition effects of sodium deoxycholate and histidine in the absence of a sugar as the excipient was examined.
as §1, with “First, Polysorbate 20 was dissolved in distilled water in a concentration of 0.5%, and histidine or sodium deoxycholate in a concentration of 1.0%. Next,” for “Next,”, “solvents” for “Polysorbate solutions having a variety of concentrations”, “solutions thus obtained” for “solutions”, “lyophilization.” for “lyophilizaiton.”
After the lyophilization step, the lyophilized composition thus obtained was stored at 50°C. After storage for 3 days or 2 weeks, the lyophilized composition was reconstituted in 1 ml of distilled water for injection, left standing for 30 minutes, and solubility was judged when the foams generated on reconstitution disappeared. […]

[3] = Optimal amount of Polysorbate 20: solubility of the solution after storage, by naked eye; set-up: key: + not dissolved (or deposited); - dissolved; conditions: KRN7000 200 µg/ml, 25°C
Protocol: Next, 20 mg of the active component (KRN7000) was weighed and stirred in 100 ml of the Polysorbate solutions having a variety of concentrations in a heated bath at 80°C for 20 minutes in order to form a solution. After cooling with running water, the mixture was filtered through a 0.22 µm filter, and transparent colorless glass vials having a volume of 5 ml were charged with a 2 ml portion of each of a variety of solutions and sealed up.
These samples were stored at 25°C for 2 weeks, and judged of their solubility. The samples judged in solution were further stored, and judged again of their solubility after 1 month.
as §2, with “in the” for “in a”

[4] = Cooling condition after dissolution with heating 1: turbidity; conditions: Polysorbate 20 0.5%, histidine 0.75%, sucrose 5.6%, cooling 73°C → 30°C; for Turbidity After filtration / Turbidity Before filtration: 800 mg KRN7000 in 4 liters; for Turbidity After filtration: 0.22 µm filter; for Turbidity After filtration / Turbidity Lyophilized composition: kaolin 1 µg/ml = turbidity 1.00; for Turbidity Before filtration: kaolin 1 µg/ml = turbidity 1.00, 660 nm; for Turbidity Lyophilized composition: reconstituted after 3 hours at room temperature (25°C)
Protocol: First, Polysorbate 20 was dissolved in distilled water in a concentration of 0.5%, histidine in a concentration of 0.75%, and sucrose in a concentration of 5.6%. Next, 800 mg of the active component (KRN7000) was weighed and stirred in 4 liters of the solvent under heating at 73°C for 30 minutes in order to form a solution. After dissolution, the mixture was divided into about 500 ml portions, cooled with stirring from 73°C to 30°C (6 minutes), from 73°C to 30°C (23 minutes), and from 73°C to 30°C (120 minutes). After cooling, the mixtures were filtered through a 0.22 µm filter, and transparent colorless glass vials having a volume of 5 ml were charged with a 1 ml portion of each of a variety of solutions thus obtained and subjected to lyophilization. Lyophilization was carried out under the condition of preliminary freezing at -50°C for 5 hours and drying at -15°C for 48 hours, 10°C for 12 hours, and finally at 25°C for 7 hours to give the lyophilized product. The degree of vacuum was set at 0.1 Torr or less during drying step.
The turbidity of the solutions prepared respective cooling conditions before or after the filtration step, and the lyophilized composition thus obtained which were reconstituted after leaving standing at room temperature (25°C) for 3 hours from the lyophilization step, were measured. In this connection, the lyophilized composition was reconstituted in 1 ml of distilled water for injection, left standing for 30 minutes, and turbidity was measured when the foams generated on reconstitution disappeared.
The turbidity was measured by the following method: various dilutions including 50-fold dilution (kaolin 2 µg/ml, turbidity 2.00), 100-fold dilution (kaolin 1 µg/ml, turbidity 1.00), and 200-fold dilution (kaolin 0.5 µg/ml, turbidity 0.50) were prepared by diluting the turbidity standard (kaolin, […]) with distilled water. A calibration curve was made by measuring the absorbance at a wave length of 660 nm with a control of distilled water and the various dilutions in a spectrophotometer (HITACHI U-3210). Next, the absorbance of the solutions was measured under the same condition as above to calculate the turbidity of the solutions.

SMILES: CCCCCCCCCCCCCCCCCCCCCCCCCC(=O)N[C@@H](CO[C@H]1O[C@H](CO)[C@H](O)[C@H](O)[C@H]1O)[C@H](O)[C@H](O)CCCCCCCCCCCCCC [KRN7000, (2S,3S,4R)-1-(α-D-galactopyranosyloxy)-2-hexacosanoylamino-3,4-octadecanediol]
- Re-solubility immediately after lyophilization (by naked eye) ([1]; Polysorbate 20 0.5%): + (+ not dissolved (or deposited))
- Re-solubility immediately after lyophilization (by naked eye) ([1]; Polysorbate 20 1.0%): + (+ not dissolved (or deposited))
- Re-solubility immediately after lyophilization (by naked eye) ([1]; Polysorbate 20 2.0%): + (+ not dissolved (or deposited))
- Re-solubility after storage (by naked eye) ([2]; Histidine, 2 weeks): + (+ not dissolved (or deposited))
- Re-solubility after storage (by naked eye) ([2]; Sodium deoxycholate, 3 days): + (+ not dissolved (or deposited))
- Variation with the passage of time after storage (by naked eye) ([3]; Polysorbate 20 0.1%, 2 weeks): +
- Variation with the passage of time after storage (by naked eye) ([3]; Polysorbate 20 0.2%, 2 weeks): +
- Variation with the passage of time after storage (by naked eye) ([3]; Polysorbate 20 0.3%, 1 month): +
- Variation with the passage of time after storage (by naked eye) ([3]; Polysorbate 20 0.3%, 2 weeks): -
- Variation with the passage of time after storage (by naked eye) ([3]; Polysorbate 20 0.5%, 1 month): +
- Variation with the passage of time after storage (by naked eye) ([3]; Polysorbate 20 0.5%, 2 weeks): -
- Variation with the passage of time after storage (by naked eye) ([3]; Polysorbate 20 1.0%, 1 month): +
- Variation with the passage of time after storage (by naked eye) ([3]; Polysorbate 20 1.0%, 2 weeks): -
- Variation with the passage of time after storage (by naked eye) ([3]; Polysorbate 20 2.0%, 1 month): +
- Variation with the passage of time after storage (by naked eye) ([3]; Polysorbate 20 2.0%, 2 weeks): -
- Variation with the passage of time after storage (by naked eye) ([3]; Polysorbate 20 4.0%, 1 month): +
- Variation with the passage of time after storage (by naked eye) ([3]; Polysorbate 20 4.0%, 2 weeks): -
- Variation with the passage of time after storage (by naked eye) ([3]; Polysorbate 20 8.0%, 1 month): +
- Variation with the passage of time after storage (by naked eye) ([3]; Polysorbate 20 8.0%, 2 weeks): -
- Turbidity After filtration ([4]; 6 minutes): 0.13
- Turbidity Before filtration ([4]; 6 minutes): 0.23
- Turbidity After filtration ([4]; 23 minutes): 0.15
- Turbidity Before filtration ([4]; 23 minutes): 0.58
- Turbidity After filtration ([4]; 120 minutes): 0.16
- Turbidity Before filtration ([4]; 120 minutes): 0.64
- Turbidity Lyophilized composition ([4]; 6 minutes): 0.24
- Turbidity Lyophilized composition ([4]; 23 minutes): 0.36
- Turbidity Lyophilized composition ([4]; 120 minutes): 0.36

— EP1016409B1, “FREEZE DRIED COMPOSITION COMPRISING GLYCOSPHINGOLIPIDS” (KIRIN BEER KABUSHIKI KAISHA, priority 1997, dated 1998)
